“Also recorded” adds a separate entry of the source.
Experiments:
[1] = biological target: FKBP12F36V (Homo sapiens, UniProt P62942, F37V); conditions: cited from earlier work
[2] = test system: endogenous FKBPs; conditions: cited from earlier work
[3] = test system: PGCs containing the targeted icaspase9 gene; assay: PGC culture with dimerization molecule B/B, total cell number after 10 days; assay type: cell-based, chicken
Protocol: FIG. 6 500 PGCs (dazl-GFP, dazl-human-Caspase or dazl-chicken-Caspase) were cultured in the presence or absence of the dimerization molecule B/B. After 10 days the total cell number was counted for each well. N=6 for each data point, from three independent experiments.
FIG. 22 500 PGCs (dazl-GFP, dazl-iCaspase, dazl-aviCaspase, ddx4-iCaspase9) were cultured in the presence or absence of the dimerization molecule B/B. After 10 days the total cell number was counted for each well. N=2 for each data point.
PGCs containing the targeted icaspase9 gene were treated with the B/B dimerization compound. […] These cells were mixed with control red fluorescent PGCs and injected into chicken embryos. The chicken embryos were treated with the B/B dimerization compound. Only red PGCs and control GFP PGCs were visible in the embryos. Dazl icaspase9 PGCs were killed (FIG. 7).
The iCaspase9 trasgene was targeted to either the DDX4 or the DAZL locus in PGCs and the cells were then exposed to the dimerisation drug. Cells containing the transgene inserted at the DAZL locus were determined to be inhibited/killed. Without wishing to be bound by theory, the inventors consider the expression levels at embryonic stages are important for ablating germ cells.

[4] = test system: DAZL-iCasp9 targeted PGCs; assay: Ablation of injected DAZL-iCasp9 targeted PGCs in embryos treated with B/B; assay type: in vivo, chicken; conditions: stage HH 16 embryos, 25 nM B/B, gonads viewed at 8 days; FIG. 7
Protocol: Stage HH 16 embryos were injected with 3500 PGCs transfected with CRISPR reagents to insert an inducible caspase gene and GFP at the dazl locus, and 3500 PGCs transfected with a transposon to insert a cassette for TdTomato expression randomly in the genome. After injection, embryos were dosed with 50 μl of 1× Pen/Strep with or without 25 nM of the dimeriser drug B/B. At 8 days of development, gonads were dissected and viewed under fluorescence. Images are representative of three independent injections for each treatment.
PGCs containing the targeted icaspase9 gene were treated with the B/B dimerization compound. […] These cells were mixed with control red fluorescent PGCs and injected into chicken embryos. The chicken embryos were treated with the B/B dimerization compound.

[5] = test system: germ cells; assay: Germ cell ablation in G2 Dazl-iCaspase9 and Dazl-aviCaspase9 embryos after B/B injection; assay type: in vivo, chicken; conditions: FIG. 11
Protocol: B/B was injected into the dorsal aorta of stage 16 chicken embryos (day 2.5). Embryos were incubated and examined at day 10 for GFP fluorescence and DDX4 expression. Left panels; GFP fluorescence in B/B injected iCaspase9 and aviCaspase9 embryos. Right panels: immunofluorescence for DDX4 protein (red).
The G1 Dazl-icaspase9 and Dazl-aviCaspase9 chickens were raised to sexual maturity and mated with wildtype chickens. Fertile eggs from the matings (G2 embryos) were incubated and examined for GFP expression in the gonads. The germ cells in the gonads of both Dazl-icaspase9 and Dazl-avicaspase9 G2 embryos contained GFP+ cells in the gonad (FIG. 9). […] The G2 embryos were tested for germ cell ablation. 1.0 μl of 0.1 mM B/B dimerization reagent (Takara Bio, Inc) was injected into the bloodstream of day 2.5 (stage 16 Hamilton & Hamburger (HH)) chicken embryos. The embryos were incubated for 8 days, PCR-screened to identify iCaspase9 embryos and examined for GFP expression in the gonads. […] Embryos were incubated for 8 days and examined for florescence and germ cells. […] (FIG. 12).

[6] = test system: endogenous (host) germ cells; assay: Host germ cell ablation and donor PGC colonisation in Dazl-aviCaspase9 G2 embryos with B/B; assay type: in vivo, chicken; conditions: Dazl-aviCaspase9 G2 embryos injected with donor TdTomato PGCs and B/B, examined at day 10; FIG. 12
Protocol: FIG. 12 B/B drug treatment of aviCaspase9 transgenic embryos ablates host germ cells and permits transplanted donor cells to populate the host gonad. Stage HH 16 embryos containing the aviCaspase9 transgene targeted to the DAZL locus, were injected with 200 donor PGCs transfected with a transposon to insert a cassette for TdTomato expression randomly in the genome. Injected cells were in 1 μl of solution containing 0.5 mM (final concentration) B/B dimerization drug. After injection, eggs were dosed with 50 μl of 1× Pen/Strep containing 15 μM (final concentration) B/B dimeriser drug and incubated for 8 days. At 10 days of development, gonads were dissected and viewed under fluorescence.
The G1 Dazl-icaspase9 and Dazl-aviCaspase9 chickens were raised to sexual maturity and mated with wildtype chickens. Fertile eggs from the matings (G2 embryos) were incubated and examined for GFP expression in the gonads. The germ cells in the gonads of both Dazl-icaspase9 and Dazl-avicaspase9 G2 embryos contained GFP+ cells in the gonad (FIG. 9). […] The G2 embryos were tested for germ cell ablation. 1.0 μl of 0.1 mM B/B dimerization reagent (Takara Bio, Inc) was injected into the bloodstream of day 2.5 (stage 16 Hamilton & Hamburger (HH)) chicken embryos. The embryos were incubated for 8 days, PCR-screened to identify iCaspase9 embryos and examined for GFP expression in the gonads. […]

[7] = test system: host germ cells; assay: Offspring from Dazl-Caspase9 hosts injected with Silkie donor PGCs and B/B; assay type: in vivo, chicken; conditions: Dazl-Caspase9 hosts injected with black skinned Silkie PGCs; FIG. 23
Protocol: FIG. 23 illustrates the use of caspase9 host ablation using black skinned silkie chicken donor PGCs injected into the iCaspase9 surrogate host embyros which are hatched and bred to produce pure offspring. […] (A-C) The offspring (embryos and chicks) have black skins indicating they came from the donor germ cells.
Utilising caspase 9 expression targeted to the DAZL locus in PGCs, host germ cell ablation and producing offspring from a donor chicken breed were tested using chicken donor PGCs from a black skinned silkie chicken breed. Donor PGCs injected into the caspase host embryos which were then raised to sexual maturity and bred were tested.
In more detail, in this embodiment, black skinned Silkie PGCs were mixed with B/B dimerisation drug and injected into Dazl-Caspase host embryos whilst in the egg. The eggs were sealed and the embryos were hatched then crossed to each other when sexual mature.
50% of offspring should be GFP positive if derived from the endogenous GFP+ caspase9 host PGCs.

[8] = test system: PGCs containing the targeted nitroreductase gene; assay: PGC culture with nitroreductase pro-drug CB1954, total cell number after 10 days; assay type: cell-based, chicken
Protocol: FIG. 5 500 PGCs (Control, CAG-NTR or Dazl-NTR) were cultured in the presence or absence of the nitroreductase pro-drug CB1954 (n=2 for each concentration of pro-drug). After 10 days the total cell number was counted for each well. N=6 for each data point, from three independent experiments.
PGCs containing the targeted nitroreductase gene were treated with the pro-drug CB1954. PGCs died when exposed to the drug.

Sequence of FKBP12F36V (P62942 whole entry F37V): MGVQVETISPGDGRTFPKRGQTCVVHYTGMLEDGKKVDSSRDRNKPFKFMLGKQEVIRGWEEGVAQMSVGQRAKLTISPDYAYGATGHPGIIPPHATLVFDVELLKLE

Row | SMILES | affinity and selectivity for FKBP12F36V [1] | interaction with endogenous FKBPs [2] | PGC number ([3]; control untargeted PGCs) | PGC number ([3]; human and chicken caspase9 genes targeted to the dazl locus, FIG. 6) | PGC number ([3]; iCaspase 9 targeted to the ddx4 locus) | effect on cells with iCaspase9 transgene ([3]; transgene inserted at the DAZL locus, FIG. 22) | fate of injected Dazl icaspase9 PGCs in embryos [4] | GFP expression in the gonads ([5]; 1.0 μl of 0.1 mM injected at day 2.5, incubated 8 days) | DDX4 positive or GFP+ germ cells in the gonads ([5]; cryosections and DDX4 immuno-staining) | endogenous (host) germ cells in the gonad [6] | skin phenotype of offspring (donor origin) [7] | cell number versus control cells ([8]; NTR targeted to the dazl locus, FIG. 5) | PGC survival on exposure to pro-drug ([8]; PGCs containing the targeted nitroreductase gene)
1 | CC[C@H](C(=O)N1CCCC[C@H]1C(=O)O[C@H](CCc1ccc(OC)c(OC)c1)c1cccc(OCC(=O)NCCNC(=O)COc2cccc([C@@H](CCc3ccc(OC)c(OC)c3)OC(=O)[C@@H]3CCCCN3C(=O)[C@@H](CC)c3cc(OC)c(OC)c(OC)c3)c2)c1)c1cc(OC)c(OC)c(OC)c1 [AP1903] | high affinity and selectivity | minimal interaction | – | – | – | – | – | – | – | – | – | – | –
2 | CC[C@H](C(=O)N1CCCC[C@H]1C(=O)O[C@H](CCc1ccc(OC)c(OC)c1)c1cccc(OCC(=O)NCC(CNC(=O)COc2cccc([C@@H](CCc3ccc(OC)c(OC)c3)OC(=O)[C@@H]3CCCCN3C(=O)[C@@H](CC)c3cc(OC)c(OC)c(OC)c3)c2)CN(C)C)c1)c1cc(OC)c(OC)c(OC)c1 [B/B, AP20187] | high affinity and selectivity | minimal interaction | did not have reduced numbers of PGCs | severely reduced PGC numbers | slightly less PGC number | inhibited/killed | killed; also recorded: ablates | no visible GFP expression | almost no identifiable DDX4 positive or GFP+ cells are present; also recorded: no germ cells | no endogenous (host) germ cells were detected | black skin | – | –
3 | NC(=O)c1cc(N2CC2)c([N+](=O)[O-])cc1[N+](=O)[O-] [CB1954] | – | – | – | – | – | – | – | – | – | – | – | reduction in cell number in comparison to the control cells | died
